The values below come from patent US12403104B2, “Compounds and methods of promoting myelination” (Case Western Reserve University, priority 2016, dated 2025).

SMILES strings stand for the structures.

The test system of experiment [1] is OPCs. Briefly: GC/MS-based sterol profiling in OPCs. It counts as cell-based, mouse. Conditions: GC/MS; for sterol levels / sterol intermediate accumulation in OPCs: 24 h treatment (siRNA 96 h).
For experiment [2], the system named is mouse epiblast stem cell-derived OPCs. Briefly: In vitro phenotypic screening of OPCs (MBP+ oligodendrocytes at 72 h). Type of experiment: cell-based. The protocol:
Then, 40,000 cells were seeded per well in differentiation medium and allowed to attach for 30 min before addition of drug. […] Sterols were added to cells as an ethanol solution (0.2% final ethanol concentration). […] Cells were incubated under standard conditions (37° C., 5% CO2) for 3 days and fixed with 4% paraformaldehyde (PFA) in phosphate buffered saline (PBS) for 20 min. Fixed plates were washed with PBS (200 μL per well) twice, permeabilized with 0.1% Triton X-100 and blocked with 10% donkey serum (v/v) in PBS for 40 min. […] Nuclei were visualized by DAPI staining (Sigma; 1 μg/ml).

In experiment [3] the test system is T47D cells. The following applies: 5 days.
The subject of experiment [4] is mouse primary OPCs. Briefly: MBP+ oligodendrocyte formation from mouse primary OPCs. It counts as cell-based. Conditions: 72 h. The protocol:
To obtain mouse primary OPCs, whole brain was removed from post-natal day 2 pups anesthetized on ice. Brains were placed in cold DMEM/F12, and the cortices were isolated and the meninges were removed. The cortices were manually chopped and processed with the Tumor Dissociation Kit (Miltenyi) and incubated at 37° C. for 10 minutes. The cell suspension was filtered through a […] filter and centrifuged at 200×g for 4 minutes at room temperature. The cells were washed in DMEM/F12, re-centrifuged and plated in poly-Ornithine and Laminin-treated flasks containing DMEM/P12 supplemented with N2 Max, B27 (ThermoFisher), 20 ng/mL FGF, and 20 ng/mL PDGF. […] were passaged once prior to treatment. Media was changed every 48 hours.
Then, 40,000 cells were seeded per well in differentiation medium and allowed to attach for 30 min before addition of drug. For dose-response testing of all molecules except sterols, a 1000× compound stock in dimethyl sulphoxide (DMSO) was added to assay plates with 0.1 μL solid pin multi-blot replicators (V & P Scientific; VP 409), resulting in a final primary screening concentration of 1×. Sterols were added to cells as an ethanol solution (0.2% final ethanol concentration). […] Cells were incubated under standard conditions (37° C., 5% CO2) for 3 days and fixed with 4% paraformaldehyde (PFA) in phosphate buffered saline (PBS) for 20 min. […]

For experiment [5], the target named is T1, EBP (Mus musculus, UniProt P70245).
T1 construct: active EBP was obtained from mouse microsomes; from tissue
T1 sequence (P70245 1-230): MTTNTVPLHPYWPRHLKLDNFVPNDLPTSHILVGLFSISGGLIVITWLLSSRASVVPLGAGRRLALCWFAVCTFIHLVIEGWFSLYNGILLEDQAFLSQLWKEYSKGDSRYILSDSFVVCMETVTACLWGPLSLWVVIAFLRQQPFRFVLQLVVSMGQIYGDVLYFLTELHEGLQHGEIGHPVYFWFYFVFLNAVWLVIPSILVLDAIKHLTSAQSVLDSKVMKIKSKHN
Briefly: EBP enzymatic assay (GC/MS). It counts as biochemical. The following applies: 10 μM, zymostenol 25 μM.

For experiment [6], the system named is LPC-lesioned spinal cord. The following applies: earlier work; cited from earlier work.
Experiment [7] relates to human glioma cells (GBM528). Briefly: GC/MS sterol profiling in human glioma cell line. It counts as cell-based. The following applies: 24 h.
For experiment [8], the system named is LPC-lesioned spinal cord. Briefly: LPC focal demyelination of spinal cord, remyelination. Conditions: ifenprodil 10 mg per kg, tamoxifen 2 mg per kg, daily intraperitoneal, 8 days. Type of experiment: in vivo, mouse.

In the case of `CN(C)CCOc1ccc(/C(=C(/CCCl)c2ccccc2)c2ccccc2)cc1` [toremifene, Toremifene], in experiment [1] (24 h), the “cholesterol pathway enzyme inhibited in OPCs (from sterol profile)” value is on record as “inhibited EBP”. The “formation of MBP+ oligodendrocytes from OPCs” value in experiment [2] is “enhanced MBP+ oligodendrocyte generation over a wide dose range”. In experiment [3], the “antiestrogen effects on estrogen-dependent growth” value is listed as “comparable antiestrogen effects”.

As for `Cc1cc(C)c(CNC(=O)c2cc(-c3ccc(CN4CCOCC4)cc3)cc3c2cnn3C2CCCC2)c(=O)[nH]1` [EPZ005687], the “sterol levels / sterol intermediate accumulation in OPCs” value in experiment [1] was “uniquely caused accumulation of zymosterol and zymostenol in OPCs”. Also, the “formation of MBP+ oligodendrocytes from OPCs” value in experiment [2] is “enhanced oligodendrocyte formation”. For the same compound, the “oligodendrocyte formation from mouse primary OPCs” value in experiment [4] is recorded as “enhanced oligodendrocyte formation”. For the same compound, in experiment [5], the “inhibition of EBP enzymatic activity” value was “directly inhibiting EBP enzymatic activity”.

Turning to `Clc1ccc(COC(Cn2ccnc2)c2ccc(Cl)cc2Cl)c(Cl)c1` (stereo not drawn) [miconazole, Miconazole], the “remyelination in mouse models of demyelination (previously established)” value in experiment [6] was “enhances remyelination in mouse models of demyelination”. Also, the “accumulation of sterol intermediates in human glioma cell line” value (shortened to “accumulation of sterol intermediates”) in experiment [7] is “caused accumulation of the expected sterol intermediates”.

With `CC(C(O)c1ccc(O)cc1)N1CCC(Cc2ccccc2)CC1` (stereo not drawn) [ifenprodil, Ifenprodil], the “accumulation of sterol intermediates” value in experiment [7] is “caused accumulation of the expected sterol intermediates”. The “remyelination of LPC lesion” value in experiment [8] was “remyelination was widespread throughout the lesion”.

With `CC/C(=C(\c1ccccc1)c1ccc(OCCN(C)C)cc1)c1ccccc1` [tamoxifen, Tamoxifen], the “sterol levels / sterol intermediate accumulation in OPCs” value in experiment [1] is “induced accumulation of zymostenol and zymosterol and decreased basal sterol levels”. Besides, the “accumulation of sterol intermediates” value in experiment [7] is on record as “caused accumulation of the expected sterol intermediates”. The “remyelination of LPC lesion” value in experiment [8] is on record as “remyelination was widespread throughout the lesion”. The “inhibition of EBP enzymatic activity” value in experiment [5] is listed as “clear inhibition”.
